In patent US20260027116A1, “Methods of Treating Chronic Graft-Versus-Host Disease Following Allogeneic Hematopoietic Stem Cell Transplantation” (Kadmon Corporation, LLC, priority 2022, published 2026):

Experiments:
cGVHD [1] = test: Example 1: corticosteroid and calcineurin inhibitor dose change; assay type: in vivo, human
Method: Progression was defined per the 2014 NIH cGVHD Consensus Criteria. Long-term follow-up was conducted every 8 weeks until study closeout. […] Screening was conducted within 28 days of the first study dose. Response was initially assessed after two cycles; however, this was amended to evaluate response on day 1 of each cycle, starting at cycle 2 day 1.
Change from Baseline in Corticosteroids Dose. An EOT visit was performed within 3 days after the participant's last dose of study drug. Baseline value was defined as valid and last non-missing value obtained within 28 days prior to participant receiving first study medication. The mITT population was analyzed, with the ‘overall number of participants analyzed’=participants with available data for this outcome measure.
Change from Baseline in Calcineurin Inhibitor (CNI). Calcineurin inhibitors included systemic tacrolimus and cyclosporine. Number of participants who took CNI at Baseline and had reduction and discontinuation in CNI use as compared to Baseline during the study are reported in this outcome measure. EOT visit was performed within 3 days after the participant's last dose of study drug. Baseline value was defined as valid and last non-missing value obtained within 28 days prior to participant receiving first study medication.

cGVHD [2] = test: Example 2: corticosteroid and other immunosuppressant reduction; assay type: in vivo, human
Method: All responses were assessed by the study site investigators.

**Q.** With `CC(C)NC(=O)COc1cccc(-c2nc(Nc3ccc4[nH]ncc4c3)c3ccccc3n2)c1` [Belumosudil, 2-{3-[4-(1H-indazol-5-ylamino)-2-quinazolinyl]phenoxy}-N-(propan-2-yl) acetamide] as the compound, how does the “Change From Baseline in Corticosteroids Dose, mean (SD)” value (“Change From Baseline … (SD)” for short) (cGVHD [1]; Cohort 1 200 mg QD) read?
**A.** −0.110 (0.101) milligrams per kilogram per day

**Q.** What about the “Participants who discontinued CNI, n (%)” value (cGVHD [1]; Cohort 1 200 mg QD) of the same compound?
**A.** 0 (0%)

**Q.** What about the “Participants with reduction in CNI dose, n (%)” value (cGVHD [1]; Cohort 1 200 mg QD) of the same compound?
**A.** 5 (83%)

**Q.** What about the “mean percent change in CS dose from baseline, nonresponder” value (“mean percent change … nonresponder” below) (cGVHD [1]; Cohort 1 200 mg QD) of the same compound?
**A.** −26%

**Q.** And the “mean percent change in CS dose from baseline, overall” value (“mean percent change … overall” for short) (cGVHD [1]; Cohort 1 200 mg QD)?
**A.** −50%

**Q.** And the “mean percent change in CS dose from baseline, responder” value (cGVHD [1]; Cohort 1 200 mg QD)?
**A.** −63%

**Q.** What about the “Change From Baseline … (SD)” value (cGVHD [1]; Cohort 2 200 mg BID) of the same compound?
**A.** −0.111 (0.147) milligrams per kilogram per day

**Q.** What about the “Participants who discontinued CNI, n (%)” value (cGVHD [1]; Cohort 2 200 mg BID) of the same compound?
**A.** 1 (17%)

**Q.** What about the “Participants with reduction in CNI dose, n (%)” value (cGVHD [1]; Cohort 2 200 mg BID) of the same compound?
**A.** 5 (83%)

**Q.** And the “mean percent change … nonresponder” value (cGVHD [1]; Cohort 2 200 mg BID)?
**A.** −37%

**Q.** What about the “mean percent change … overall” value (cGVHD [1]; Cohort 2 200 mg BID) of the same compound?
**A.** −36%

**Q.** And the “mean percent change in CS dose from baseline, responder” value (cGVHD [1]; Cohort 2 200 mg BID)?
**A.** −36%

**Q.** What about the “Change From Baseline … (SD)” value (cGVHD [1]; Cohort 3 400 mg QD) of the same compound?
**A.** −0.116 (0.152) milligrams per kilogram per day

**Q.** What about the “Participants who discontinued CNI, n (%)” value (cGVHD [1]; Cohort 3 400 mg QD) of the same compound?
**A.** 3 (27%)

**Q.** What about the “Participants with reduction in CNI dose, n (%)” value (cGVHD [1]; Cohort 3 400 mg QD) of the same compound?
**A.** 6 (55%)

**Q.** What about the “mean percent change … nonresponder” value (cGVHD [1]; Cohort 3 400 mg QD) of the same compound?
**A.** −19%

**Q.** What about the “mean percent change … overall” value (cGVHD [1]; Cohort 3 400 mg QD) of the same compound?
**A.** −47%

**Q.** What about the “mean percent change in CS dose from baseline, responder” value (cGVHD [1]; Cohort 3 400 mg QD) of the same compound?
**A.** −63%

**Q.** What about the “median time to corticosteroid therapy discontinuation” value (cGVHD [1]; Example 1) of the same compound?
**A.** 29 weeks

**Q.** And the “mean corticosteroid dose reduction” value (cGVHD [1]; Example 1, all patients)?
**A.** 45%

**Q.** What about the “mean corticosteroid dose reduction” value (cGVHD [1]; Example 1, nonresponders) of the same compound?
**A.** 26%

**Q.** What about the “mean corticosteroid dose reduction” value (cGVHD [1]; Example 1, responders) of the same compound?
**A.** 55%

**Q.** And the “mean percent change … nonresponder” value (cGVHD [1]; Total, N=54)?
**A.** −26%

**Q.** And the “mean percent change … overall” value (cGVHD [1]; Total, N=54)?
**A.** −45%

**Q.** And the “mean percent change in CS dose from baseline, responder” value (cGVHD [1]; Total, N=54)?
**A.** −55%

**Q.** And the “proportion with CS reduction, % (95% CI)” value (cGVHD [1]; Total, N=54)?
**A.** 67%

**Q.** And the “Mean change in CS dose from baseline, Nonresponder” value (“Mean change … Nonresponder” for short) (cGVHD [2]; 200 mg daily)?
**A.** −22%

**Q.** And the “Mean change in CS dose from baseline, Overall” value (shortened to “Mean change … Overall”) (cGVHD [2]; 200 mg daily)?
**A.** −43%

**Q.** What about the “Mean change in CS dose from baseline, Responder” value (cGVHD [2]; 200 mg daily) of the same compound?
**A.** −49%

**Q.** What about the CS discontinuation (cGVHD [2]; 200 mg daily (n = 66)) of the same compound?
**A.** 13 (20) n (%)

**Q.** And the “Median CS reduction from baseline to greatest reduction” value (shortened to “Median CS reduction from baseline”) (cGVHD [2]; 200 mg daily (n = 66))?
**A.** 38%

**Q.** And the “Proportion with CS reduction” value (cGVHD [2]; 200 mg daily (n = 66))?
**A.** 42 (64) n (%)

**Q.** And the “Mean change … Nonresponder” value (cGVHD [2]; 200 mg twice daily)?
**A.** −10%

**Q.** What about the “Mean change … Overall” value (cGVHD [2]; 200 mg twice daily) of the same compound?
**A.** −48%

**Q.** And the “Mean change in CS dose from baseline, Responder” value (cGVHD [2]; 200 mg twice daily)?
**A.** −58%

**Q.** And the CS discontinuation (cGVHD [2]; 200 mg twice daily (n = 66))?
**A.** 15 (23) n (%)

**Q.** What about the “Median CS reduction from baseline” value (cGVHD [2]; 200 mg twice daily (n = 66)) of the same compound?
**A.** 50%

**Q.** And the “Proportion with CS reduction” value (cGVHD [2]; 200 mg twice daily (n = 66))?
**A.** 44 (67) n (%)

**Q.** And the “subjects who discontinued calcineurin inhibitor (CNI) therapy” value (cGVHD [2]; Example 2)?
**A.** 22%

**Q.** And the “subjects who discontinued mycophenolate mofetil” value (cGVHD [2]; Example 2)?
**A.** 21%

**Q.** And the “subjects who discontinued sirolimus” value (cGVHD [2]; Example 2)?
**A.** 20%

**Q.** And the “subjects who reduced corticosteroid dose” value (cGVHD [2]; Example 2)?
**A.** 65%

**Q.** What about the “mean corticosteroid dose reduction” value (cGVHD [2]; Example 2, mITT) of the same compound?
**A.** 45%

**Q.** What about the “mean corticosteroid dose reduction” value (cGVHD [2]; Example 2, responders) of the same compound?
**A.** 54%

**Q.** And the “Mean change … Nonresponder” value (cGVHD [2]; Total)?
**A.** −16%

**Q.** What about the “Mean change … Overall” value (cGVHD [2]; Total) of the same compound?
**A.** −45%

**Q.** And the “Mean change in CS dose from baseline, Responder” value (cGVHD [2]; Total)?
**A.** −54%

**Q.** What about the “Median CS reduction from baseline” value (cGVHD [2]; Total (N = 132)) of the same compound?
**A.** 50%

**Q.** And the “Proportion with CS reduction” value (cGVHD [2]; Total (N = 132))?
**A.** 86 (65) n (%)
